Reference: US20250009889A1, “CYCLIC PEROXIDES AS PRODRUGS FOR SELECTIVE DELIVERY OF AGENTS” (The Regents of the University of California, priority 2021, published 2025)
pIC50: −log10 of the molar value. “Also recorded” adds a separate entry of the source.

What was measured:
[1] = system: P. falciparum parasites (W2 strain); assay: Growth inhibition of cultured P. falciparum parasites (antiplasmodial activity); format: cell-based; settings: Plasmodium falciparum, Erythrocyte, in human red blood cells, 48 h incubation, flow cytometry, read-out: IC50 against cultured P. falciparum parasites
Method: Plasmodium falciparum EC50 Determinations
The growth inhibition assay for P. falciparum was conducted as described previously with minor modifications. Briefly, P. falciparum strain W2 synchronized ring-stage parasites were cultured in human red blood cells in 96-well flat-bottom culture plates at 37° C., adjusted to 1% parasitemia and 2% hematocrit under an atmosphere of 3% O2, 5% CO2, and […] in a final volume of 0.1 mL per well in RPMI-1640 media supplemented with 0.5% Albumax, 2 mM L-glutamine, and […] in the presence of various concentrations of inhibitors. […] Following 48 h of incubation, the cells were fixed by adding 0.1 mL of 2% formaldehyde in phosphate buffered saline, pH=7.4 (PBS). Parasite growth was evaluated by flow cytometry on a FACsort (Becton Dickinson) equipped with AMS-1 loader (Cytek Development) after staining with 1 nM of the DNA dye YOYO-1 (Molecular Probes) in 100 mM NH4Cl, 0.1% Triton x-100 in 0.8% NaCl. Parasitemias were determined from dot plots (forward scatter vs fluorescence) using CELLQUEST software (Becton Dickinson). EC50 values for growth inhibition were determined from plots of percentage control parasitemia over inhibitor concentration using GraphPad Prism software.

[2] = Fe(II)-fragmentation assay followed by UPLC/MS; format: physicochemical; settings: ferrous-ammonium sulfate with pH 7.4 Tris buffer; for fragmentation of the trioxolane / conversion to the common cyclohexanone intermediate A on exposure to Fe^2+: UPLC/MS
Method: Fe(II)-Fragmentation Assay To 1 mL of trioxolane analog in DMSO (1 mM) at 37° C. was added 1 mL of Tris containing 50 mM ferrous ammonium sulfate. At various time points, 40 μL aliquots of the resulting mixture were removed and spun down in a mini centrifuge for 20 seconds, 20 μL of the supernatant was removed and 5 μL was injected into the UPLC. The concentration of the fragments was determined by UV from UPLC (290 nm). The resulting UV curves were plotted using GraphPad Prism software.

pIC50 [1] | alternate bicyclo[2.2.1]heptan-2-one product detected (regioselectivity of peroxide scission) [2] | SMILES | fragmentation of the trioxolane / conversion to the common cyclohexanone intermediate A on exposure to Fe^2+ ([2]; 37° C.) | rate of conversion to intermediate A relative to comparator 6a [2] | time point by which the conjugate is fully consumed ([2]; 37° C.) [min]
7.62 |  | O=C(O[C@@H]1CCC[C@]2(C1)OOC1(O2)C2CCCC1CCC2)N1CCCCC1C(O)c1cc(C(F)(F)F)nc2c(C(F)(F)F)cccc12 (stereo partly drawn) [6h] |  |  | 
7.77 |  | O=C(O[C@@H]1CCC[C@]2(C1)OOC1(O2)C2CC3CC(C2)CC1C3)N1CCCCC1C(O)c1cc(C(F)(F)F)nc2c(C(F)(F)F)cccc12 (stereo partly drawn) [6a, reference compound] | rapid; also recorded: within minutes to clean conversion |  | 
7.62 |  | O=C(O[C@@H]1CCC[C@]2(C1)OOC1(CC3CCC1CC3)O2)N1CCCCC1C(O)c1cc(C(F)(F)F)nc2c(C(F)(F)F)cccc12 (stereo partly drawn) [6g] |  |  | 
7.13 | No detectable quantity | O=C(O[C@@H]1CCC[C@]2(C1)OOC1(CC3CCC1C3)O2)N1CCCCC1C(O)c1cc(C(F)(F)F)nc2c(C(F)(F)F)cccc12 (stereo partly drawn) [6f] | rapid; also recorded: within minutes to clean conversion | moderately faster | ≤ 11
